{"source": "patent US12454525B2", "about": "“IL4I1 inhibitors and methods of use” (Merck Sharp & Dohme LLC, priority 2020, dated 2025)"}
{"target": "T1, recombinant IL4I1 (Homo sapiens, UniProt Q96RQ9)", "T1 construct": "purchased R&D Systems 5684-AO-020", "T1 sequence (Q96RQ9 22-567)": "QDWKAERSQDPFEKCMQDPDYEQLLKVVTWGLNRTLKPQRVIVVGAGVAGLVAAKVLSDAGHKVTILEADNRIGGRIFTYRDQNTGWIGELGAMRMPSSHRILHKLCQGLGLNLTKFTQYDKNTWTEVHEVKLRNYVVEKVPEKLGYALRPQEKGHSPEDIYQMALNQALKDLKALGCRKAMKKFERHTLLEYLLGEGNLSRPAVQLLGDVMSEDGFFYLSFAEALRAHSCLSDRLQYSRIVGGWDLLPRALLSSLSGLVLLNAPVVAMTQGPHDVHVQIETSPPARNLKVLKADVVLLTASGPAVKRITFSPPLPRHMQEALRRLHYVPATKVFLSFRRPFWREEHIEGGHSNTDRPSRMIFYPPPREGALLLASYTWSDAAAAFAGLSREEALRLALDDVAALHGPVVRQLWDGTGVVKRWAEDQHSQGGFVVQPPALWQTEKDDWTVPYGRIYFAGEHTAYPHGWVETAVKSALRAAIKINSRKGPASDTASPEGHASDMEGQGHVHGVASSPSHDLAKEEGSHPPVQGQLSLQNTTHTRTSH", "assay": "IL4I1 Enzymatic Assay (Amplex Red/HRP coupled H2O2 detection)", "assay_type": "biochemical", "conditions": "240 min; four-hour pre-incubation with compound; 1 nM IL4I1, 1 mM each Phe/Tyr/Trp; ten-point titration; fluorescence readout; read-out: Potency EC50 (nM) (240 min)", "procedure": "Interleukin 4 inducible protein 1 (IL4I1) is an L-amino oxidase that catalyzes the oxidation of aromatic residues (Phe, Trp and Tyr): L-amino acid+H2O+O2→2-oxo acid+NH3+H2O2. Equal molar of H2O2 and the corresponding alpha-ketoacid are produced when IL4I1 and substrate are added. In this assay, the hydrogen peroxide generated by IL4I1 is then detected through a coupled reaction with Amplex Red (10-acetyl-3,7-dihydroxyphenoxazine) and […] (HRP) to produce Resorufin product that could be detected in the form of fluorescence signals. The assessment of the inhibitory effect of small molecules (EC50) on IL4I1 is measured by the effectiveness of the compounds to inhibit the production of H2O2.\nUsing this assay, the potency (EC50) of each compound was determined from a ten-point (1:3 serial dilution) titration curve using the following outlined procedure. To each well of a black flat-bottom Greiner (Cat #781076) 384 well-plate, 25 nL of compound (0.1% DMSO in final assay volume of 25 μL) was dispensed, followed by the addition of 12.5 μL of 1x assay buffer (50 mM Hepes 7.0 and 0.005% Tween20 (Sigma, Cat #P8341; low peroxide grade)) containing 2 nM of recombinant IL4I1 (R&D Systems, Cat #5684-AO-020). Plates were placed in an ambient temperature humidified chamber for a four-hour pre-incubation with compound. Subsequently, each reaction was initiated by the addition of 12.5 μL 1x assay buffer containing 2 mM of each aromatic amino acids (Phe/Tyr/Trp), 0.1 mM Amplex Red and 2 U/mL of HRP. The final reaction in each well of 25 μL consists of 1 nM of IL411, 1 mM of each residues (Phe, Tyr and Trp), 0.05 mM Amplex Red and 1 U/mL of HRP. It should be noted that the concentrations of Amplex Red and HRP used here are in excess such that the conversion of H2O2 to Resorufin product occurs instantaneously and non-rate limiting. Reactions were allowed to proceed for 120 minutes followed by fluorescence readout on a Spectramax with the following set parameters: 544 nm excitation/590 nm emission, 570 nm cutoff (EnVision is an alternative reader). Dose-response curves were generated by plotting percent effect (% product conversion; Y-axis) vs. Log10 compound concentrations (X-axis). EC50 values were calculated using a non-linear regression, four-parameters sigmoidal dose-response model and are shown in Table 16.", "units": {"EC50": "nM"}}
{"smiles": "O=c1[nH]c2ccccc2n1CCC1CCCCC1", "note": "[Example 58, 1-(2-cyclohexylethyl)-1,3-dihydro-2H-benzimidazol-2-one]", "EC50": 936}
{"smiles": "O=c1[nH]c2ccccc2n1CC1CCCOC1", "note": "(centres unmarked) [Example 59, 1-[(oxan-3-yl)methyl]-1,3-dihydro-2H-benzimidazol-2-one]", "EC50": 2930}
{"smiles": "O=c1[nH]c2ccccc2n1CCC1CCCO1", "note": "(centres unmarked) [Example 60, 1-[2-(oxolan-2-yl)ethyl]-1,3-dihydro-2H-benzimidazol-2-one]", "EC50": 8660}
{"smiles": "O=c1[nH]c2ccccc2n1C[C@@H]1C[C@H]1c1ccccc1", "note": "[Example 61, 1-{[(1R,2R)-2-phenylcyclopropyl]methyl}-1,3-dihydro-2H-benzimidazol-2-one]", "EC50": 8}
{"smiles": "O=c1[nH]c2ccccc2n1CCN1CCCCC1", "note": "[Example 62, 1-[2-(piperidin-1-yl)ethyl]-1,3-dihydro-2H-benzimidazol-2-one]", "EC50": 1240}
{"smiles": "CC(C)(C)c1ccnc(Cn2c(=O)[nH]c3ccccc32)c1", "note": "[Example 63, 1-[(4-tert-butylpyridin-2-yl)methyl]-1,3-dihydro-2H-benzimidazol-2-one]", "EC50": 4530}
{"smiles": "CC(=O)NCc1ccc(Cn2c(=O)[nH]c3ccc(Cl)cc32)cc1", "note": "[Example 64, N-(4-((6-chloro-2-oxo-2,3-dihydro-1H-benzo[d]imidazol-1-yl)methyl)benzyl)acetamide]", "EC50": 56}
{"smiles": "CC(=O)NCc1ccc(Cn2c(=O)[nH]c3ccc(C)cc32)cc1", "note": "[Example 65, N-(4-((6-methyl-2-oxo-2,3-dihydro-1H-benzo[d]imidazol-1-yl)methyl)benzyl)acetamide]", "EC50": 24}
{"smiles": "CN(C)C(=O)Cc1ccc(Cn2c(=O)[nH]c3ccc(F)cc32)cc1", "note": "[Example 66, 2-(4-((6-fluoro-2-oxo-2,3-dihydro-1H-benzo[d]imidazol-1-yl)methyl)phenyl)-N,N-dimethylacetamide]", "EC50": 16}
{"smiles": "CNC(=O)Cc1ccc(Cn2c(=O)[nH]c3ccc(F)cc32)cc1", "note": "[Example 67, 2-(4-((6-fluoro-2-oxo-2,3-dihydro-1H-benzo[d]imidazol-1-yl)methyl)phenyl)-N-methylacetamide]", "EC50": 9}
{"smiles": "O=c1[nH]c2c(F)cccc2n1Cc1ccccc1", "note": "[Example 68, 1-benzyl-4-fluoro-1,3-dihydro-2H-benzo[d]imidazol-2-one]", "EC50": 1390}
{"smiles": "O=c1[nH]c2cc(F)c(F)cc2n1Cc1ccccc1", "note": "[Example 69, 1-benzyl-5,6-difluoro-1,3-dihydro-2H-benzo[d]imidazol-2-one]", "EC50": 2270}
{"smiles": "O=c1[nH]c2ccc(F)cc2n1Cc1ccc2c(c1)CCC2", "note": "[Example 70, 1-((2,3-dihydro-1H-inden-5-yl)methyl)-6-fluoro-1,3-dihydro-2H-benzo[d]imidazol-2-one]", "EC50": 14}
{"smiles": "CC(C)Oc1cccc(Cn2c(=O)[nH]c3ccccc32)c1", "note": "[Example 71, 1-(3-isopropoxybenzyl)-1,3-dihydro-2H-benzo[d]imidazol-2-one]", "EC50": 45}
{"smiles": "Cc1cc(C)cc(Cn2c(=O)[nH]c3ccccc32)c1", "note": "[Example 72, 1-[(3,5-dimethylphenyl)methyl]-1,3-dihydro-2H-benzimidazol-2-one]", "EC50": 6}
{"smiles": "CC(=O)N(C)Cc1ccc(Cn2c(=O)[nH]c3ccccc32)cc1", "note": "[Example 73, N-methyl-N-(4-((2-oxo-2,3-dihydro-1H-benzo[d]imidazol-1-yl)methyl)benzyl)acetamide]", "EC50": 24}
{"smiles": "O=C1OCCN1Cc1ccc(Cn2c(=O)[nH]c3ccccc32)cc1", "note": "[Example 74, 3-(4-((2-oxo-2,3-dihydro-1H-benzo[d]imidazol-1-yl)methyl)benzyl) oxazolidin-2-one]", "EC50": 7}
{"smiles": "CN(Cc1ccc(Cn2c(=O)[nH]c3ccccc32)cc1)S(=O)(=O)C1CC1", "note": "[Example 75, N-methyl-N-(4-((2-oxo-2,3-dihydro-1H-benzo[d]imidazol-1-yl)methyl)benzyl)cyclopropanesulfonamide]", "EC50": 16}
{"smiles": "CC(=O)NCc1ccc(Cn2c(=O)n(C(F)F)c3ccccc32)cc1", "note": "[Example 76, N-(4-((3-(difluoromethyl)-2-oxo-2,3-dihydro-1H-benzo[d]imidazol-1-yl)methyl)benzyl)acetamide]", "EC50": 9}
{"smiles": "CS(=O)(=O)NCc1ccc(Cn2c(=O)n(C(F)F)c3ccccc32)cc1", "note": "[Example 77, N-(4-((3-(difluoromethyl)-2-oxo-2,3-dihydro-1H-benzo[d]imidazol-1-yl)methyl)benzyl)methanesulfonamide]", "EC50": 6}
{"smiles": "O=c1n(Cc2ccccc2)c2ccccc2n1C(F)F", "note": "[Example 78, 1-benzyl-3-(difluoromethyl)-1,3-dihydro-2H-benzo[d]imidazol-2-one]", "EC50": 443}
{"smiles": "N#CC1(Cc2ncc(Cn3c(=O)[nH]c4ccccc43)cc2Cl)CCC1", "note": "[Example 79, 1-((3-chloro-5-((2-oxo-2,3-dihydro-1H-benzo[d]imidazol-1-yl)methyl)pyridin-2-yl)methyl)cyclobutane-1-carbonitrile]", "EC50": 113}
{"smiles": "CN1CCN(c2cccc(Cn3c(=O)[nH]c4ccccc43)c2)CC1", "note": "[Example 80, 1-(3-(4-methylpiperazin-1-yl)benzyl)-1,3-dihydro-2H-benzo[d]imidazol-2-one]", "EC50": 27}
{"smiles": "O=c1[nH]c2ccccc2n1Cc1ccc(Cn2ccnn2)cc1", "note": "[Example 82, 1-(4-((1H-1,2,3-triazol-1-yl)methyl)benzyl)-1H-benzo[d]imidazol-2 (3H)-one]", "EC50": 48}
{"smiles": "C[C@H]1COC(=O)N1Cc1ccc(Cn2c(=O)[nH]c3ccccc32)cc1", "note": "[Example 83, (S)-4-methyl-3-(4-((2-oxo-2,3-dihydro-1H-benzo[d]imidazol-1-yl)methyl)benzyl) oxazolidin-2-one]", "EC50": 13}
{"smiles": "COc1ccccc1Cn1c(=O)[nH]c2ccc(C)cc21", "note": "[Example 86, 1-(2-methoxybenzyl)-6-methyl-1,3-dihydro-2H-benzo[d]imidazol-2-one]", "EC50": 74}
{"smiles": "CC(c1ccccc1)n1c(=O)[nH]c2ccccc21", "note": "(centres unmarked) [Example 87, 1-(1-phenylethyl)-1,3-dihydro-2H-benzo[d]imidazol-2-one]", "EC50": 8900}
{"smiles": "CC(C1CCCCC1)n1c(=O)[nH]c2ccccc21", "note": "(centres unmarked) [Example 88, 1-(1-cyclohexylethyl)-1,3-dihydro-2H-benzo[d]imidazol-2-one]", "EC50": 10000}
{"smiles": "Cn1c(=O)n(Cc2cccc(OC(F)(F)F)c2)c2ccccc21", "note": "[Example 89, 1-methyl-3-(3-(trifluoromethoxy)benzyl)-1,3-dihydro-2H-benzo[d]imidazol-2-one]", "EC50": 29}
{"smiles": "COc1cccc(Cn2c(=O)n(C)c3cc(Cl)ccc32)c1", "note": "[Example 90, 5-chloro-1-(3-methoxybenzyl)-3-methyl-1,3-dihydro-2H-benzo[d]imidazol-2-one]", "EC50": 227}
{"smiles": "COc1ccccc1Cn1c(=O)[nH]c2cccc(C)c21", "note": "[Example 91, 1-(2-methoxybenzyl)-7-methyl-1,3-dihydro-2H-benzo[d]imidazol-2-one]", "EC50": 1340}
{"smiles": "COc1ccccc1Cn1c(=O)[nH]c2c(C)cccc21", "note": "[Example 92, 1-(2-methoxybenzyl)-4-methyl-1,3-dihydro-2H-benzo[d]imidazol-2-one]", "EC50": 396}
{"smiles": "O=c1[nH]c2c(N3CCCC3)cccc2n1Cc1ccccc1", "note": "[Example 93, 1-benzyl-4-(pyrrolidin-1-yl)-1,3-dihydro-2H-benzo[d]imidazol-2-one]", "EC50": 1340}
{"smiles": "CC(=O)NCc1ccc(Cn2c(=O)[nH]c3ccc(F)cc32)cc1", "note": "[Example 94, N-(4-((6-fluoro-2-oxo-2,3-dihydro-1H-benzo[d]imidazol-1-yl)methyl)benzyl)acetamide]", "EC50": 9}
{"smiles": "CCCS(=O)(=O)NCc1ccc(Cn2c(=O)[nH]c3ccc(F)cc32)cc1", "note": "[Example 95, N-(4-((6-fluoro-2-oxo-2,3-dihydro-1H-benzo[d]imidazol-1-yl)methyl)benzyl)propane-1-sulfonamide]", "EC50": 6}
